Data reported in patent US11186613B2, “Solid-phase support comprising IgG-binding peptide, and method for separating IgG” (Kagoshima University, priority 2016, dated 2021).
Read-outs that look alike come from different tables or passages of the source. Bridges are numbered along the chain shown (N, C = ends). Primed or numbered codes have the meaning given here. Where no end group is shown, it is not given here. The star is where a group is joined. Biotin = O=C1N[C@H]2[C@H](CS[C@H]2CCCCC(=O)*)N1; Fmoc = O=C(OCC1c2ccccc2-c2ccccc21)*; PEG4′ = not defined here

Columns and labels:
[1] = target: IgG; assay: Affinity analysis of IgG-binding peptides by surface plasmon resonance (BIAcore T200), IgG immobilized on sensor chip; settings: for ka / kd: peptide 10 nM to 2 μM, HBS-EP buffer pH 7.0
Method: Affinity analysis of the purified IgG-binding peptide was carried out according to the following method. Equal amounts of 0.4 M 1-ethyl-3-(3-dimethylaminopropyl)-carbodiimide (EDC) and 0.1 M sulfo-N-hydroxysuccinimide (sulfo-NHS) were mixed and injected onto a CMS sensor chip, which was set in BIAcoreT200 (GE healthcare), at a flow rate of […] for 7 min to activate the sensor chip, and then the IgG was immobilized on the sensor chip under conditions of pH 4.0 (10 mM Na acetate) so as to give an immobilized amount of 4000 to 5000 in RU value. The binding reaction was monitored by injecting the peptide in a concentration from 10 nM to 2 μM at a flow rate of […] for 180 sec while using an HBS-EP buffer (0.01 M HEPES, 0.15 M NaCl, 0.005% TWEEN 20, 3 mM EDTA, pH 7.0), and then the dissociation reaction was measured by washing with the buffer for 600 sec. Binding parameters were analyzed using BlAevalution T100 software.

[2] = tested on: human serum-derived γ-globulin; assay: Separation of human serum-derived γ-globulin on peptide-immobilized column, acidic elution; settings: 1 mg peptide on NHS-activated 1-mL column; elution 20 mM citric acid pH 2.5
Method: FIG. 1 illustrates a result of a case where human serum-derived γ-globulin (Wako) was adsorbed to a column with immobilized peptide prepared in Example 3 and eluted with an acidic elution solution (20 mM citric acid, pH 2.5). The horizontal axis represents the volume of the elution liquid and the vertical axis represents the […] concentration measured by absorbance at 280 nm.
A dichloroacetone-cross-linked peptide was immobilized to an NHS-activated prepacked column (GE Healthcare) to carry out various evaluations to assess whether the dichloroacetone-cross-linked peptide can be used as an affinity ligand for human antibody purification.
The peptide-immobilized column was prepared by the following procedures. A syringe was used to feed a solution.
To a 1-mL capacity NHS-activated prepacked column, 5 mL of 1 mM hydrochloric acid was fed to remove an isopropanol solution in the column. […]
The prepared peptide-immobilized column was connected to a liquid chromatography system AKTAexplore (GE Healthcare) and equilibrated with the adsorption solution. […] The elution of proteins from the column was detected by absorbance at 280 nm. […]

[3] = tested on: human-derived serum γ-globulin; assay: Competitive elution with peptide from peptide-immobilized column, SDS-PAGE; settings: 2.5 mL of 0.4 mg/mL peptide solution; bands around 25 kDa and 50 kDa on SDS-PAGE
Method: FIG. 2 illustrates results of SDS-PAGE of fractions fractionated in 0.5 mL that are obtained by eluting proteins with citric acid or the IgG-binding peptide from the column with immobilized peptide prepared in Example 3. The proteins were detected by CBB staining.
To the column prepared by the same method as in Example 3, 1 mg of human-derived serum γ-globulin was fed to adsorb the globulin thereto. The column was washed with the adsorption solution, and then 2.5 mL of a 0.4 mg/mL solution of Peptide a prepared in Example 2 dissolved in the adsorption solution was fed to the column. Each fraction fractionated in 0.5 mL was subjected to SDS-PAGE under reductive conditions in accordance with an ordinary method. Proteins were detected by CBB staining. For comparison, similar operations were carried out also for citric acid elution.

[4] = tested on: human serum-derived γ-globulin; assay: Evaluation of alkali resistance: DBC after repeated 0.1 M sodium hydroxide treatment; type: physicochemical; settings: five 0.1 M sodium hydroxide treatments
Method: FIG. 4 illustrates measurement results of DBC of an IgG-binding peptide cross-linked via a linker, prepared in Example 2, and an IgG-binding peptide cross-linked by disulfide, prepared in Comparative Example 1, both of which were treated with sodium hydroxide.
To a 1-mg peptide-immobilized 1-mL column prepared by the same method as in Example 3, 5 mL of 0.1 M sodium hydroxide solution was fed. The column was then washed with the adsorption solution and DBC was measured at a flow rate of 1 mL/min as in Example 5. Subsequently, a cycle of the treatment with the sodium hydroxide solution and the DBC measurement was repeated five times to evaluate the alkali resistance. The variation rate of DBC was determined based on the DBC before the sodium hydroxide treatment as 100%.
As Comparative Example 1, a column with 1 mg of a peptide cross-linked by a disulfide bond immobilized thereon was prepared, and the alkali resistance evaluation was carried out as in Example 5.

[5] = SPR, 1:1 binding model, read-out: KD (nM) 1:1 binding
[6] = SPR, equilibrium value, read-out: KD (nM) Equilibrium value

| Substance | Kd [1, 5] | Kd [1, 6] | ka ([1]; SPR) | kd ([1]; SPR) | usability as ligand for an affinity column (adsorption and acid elution of γ-globulin) [2] | elution of adsorbed γ-globulin by peptide solution [3] | alkali resistance (change in DBC by sodium hydroxide treatments) [4] | Kd ([1]; measured as in Example 1, read-out: Kd (affinity for IgG)) |
| --- | --- | --- | --- | --- | --- | --- | --- | --- |
| GPDCAYH(Xaa1)GELVWCTFH (SEQ ID NO:2, wherein Xaa1 was lysine, and the C-terminus was amidated) (GPDCAYHXGELVWCTFH; Xaa1=K; C-terminal amide; (8)..(8) Xaa is arginine, lysine, leucine, asparagine, or derivative thereof) [SEQ ID NO: 2, wherein Xaa1 is K] | 156 nM | 131 nM | 1.25E+06 | 0.195 |  |  |  |  |
| GPDCAYH(Xaa1)GELVWCTFH (SEQ ID NO:2, wherein Xaa1 was arginine and the C-terminus was amidated) ({Biotin-PEG4′}-GPDCAYHRGELVWCTFH-NH2; bridge 4-14; not fully specified (bridges); printed as GPDCAYH(Xaa1)GELVWCTFH) [Peptide a, N-terminally PEG4-modified, C-terminally amidated; cysteine sulfide groups connected via linker from 1,3-dichloro-2-propanone (linker drawing 11)] |  |  |  |  | can be used as a ligand for an affinity column | can be used as a means for elution | no decrease in DBC |  |
| GPRCAYH(Xaa1)GELVWCSFH (SEQ ID NO:4, wherein Xaa1 was arginine and the C-terminus was amidated) (GPRCAYHRGELVWCSFH-NH2; not fully specified (N-terminus, bridges); cysteine pairing not given here) [SEQ ID NO: 4, wherein Xaa1 is R] | 42 nM | 56 nM | 8.40E+05 | 0.0353 |  |  |  |  |
| Fmoc-HN-PEG4-GPDCAYH(Xaa1)GELVWCTFH (SEQ ID NO:2, wherein Xaa1 was arginine and the C-terminus was amidated) ({Fmoc-PEG4′}-GPDCAYHRGELVWCTFH-NH2; cysteine pairing not given here) [Peptide b] |  |  |  |  |  |  |  | 1000 nM |
| DCAYH(Xaa1)GELVWCT (SEQ ID NO:1, wherein Xaa1 was arginine and the C-terminus was amidated) ({Biotin-PEG4′}-DCAYHRGELVWCT-NH2; disulfide 2-12 (inferred)) [SEQ ID NO: 1, wherein Xaa1 is R] | 54 nM | 64.5 nM | 4.57E+05 | 0.0248 |  |  |  |  |
| GPDCAYH(Xaa1)GELVWCTFH (SEQ ID NO:2, wherein Xaa1 was acetylated lysine, and the C-terminus was amidated) (GPDCAYHXGELVWCTFH; Xaa1=acetyl-lysine; C-terminal amide; (8)..(8) Xaa is arginine, lysine, leucine, asparagine, or derivative thereof) [SEQ ID NO: 2, wherein Xaa1 is K (Acetyl)] | 2700 nM | 2800 nM | 4.4E+05 | 0.12 |  |  |  |  |
| GPDCAYH(Xaa1)GELVWCTFH (SEQ ID NO:2, wherein Xaa1 was arginine and the C-terminus was amidated) (GPDCAYHRGELVWCTFH-NH2; not fully specified (N-terminus, bridges); printed as GPDCAYH(Xaa1)GELVWCTFH; cysteine pairing not given here) [SEQ ID NO: 2, wherein Xaa1 is R] | 9.1 nM | 10 nM | 1.57E+06 | 0.0144 |  |  |  |  |
| GPDCAYH(Xaa1)GELVWCTFH (SEQ ID NO:2, wherein Xaa1 was leucine, and the C-terminus was amidated) ({Biotin-PEG4′}-GPDCAYHLGELVWCTFH-NH2; disulfide 4-14 (inferred)) [SEQ ID NO: 2, wherein Xaa1 is L] | 8.1 nM |  | 1.7E+05 | 0.014 |  |  |  |  |
